Experiment in all cases: antibiogram by diffusion on Mueller-Hinton agar with antibiotic wafers
Holding throughout (assay type): cell-based

One test relates to Entercoccus faecalis. The conditions noted are these: Table C1, six wafers, disk loads of Table B. The method, then: (§1) The inoculum was prepared by making a suspension of bacteria directly from colonies put into solution in tubes of sterile water so that the solution presented accurate opacity as determined with a spectrophotometer equivalent to the opacity of a 0.5 standard in the McFarland range. This bacterial suspension concentration is standardized since a more concentrated inoculum would lead to smaller diameters for the inhibition zone, and vice versa.
(§2) The inoculum corresponds to concentrations of about 10^8 CFU/mL for Escherichia coli, Klebsiella pneumoniae, Proteus mirabilis, Klebsiella oxytoca, Enterobacter cloacea, Enterobacter aerogenes, Entercoccus faecalis, Pseudomonas aeruginosa, Staphylococcus aureus, and Staphylococcus epidermidis. These are the ten species bacteria that are encountered the most frequently in human pathologies.
(§3) 1.2) The bacterial sample was deposited on a solid culture medium in a petri dish having a diameter of 90 mm or in a square dish having a side of 120 mm, the medium being constituted by a Mueller-Hinton agar specific for (EUCAST) antibiograms. Ideally, it should be used in the 15 minutes (min) following preparation of the suspension.
(§4) Seeding was done by the method of diffusion on an agar medium by flooding in which excess bacterial suspension was added to the Mueller-Hinton agar. After homogenizing, excess liquid was discarded in order to avoid over-inoculating the dishes. It is necessary to wait beforehand for the surface of the agar to be dry in order to eliminate any trace of moisture encouraging bacterial invasion.
(§5) The disks of the antibiotic wafers were deposited within 15 min after inoculating the agar. The antibiotic impregnated disks were deposited using an automatic dispenser that placed the disks firmly on the surface of the inoculated and dried agar. The number of disks deposited per dish was limited because of inhibition zone overlap and in order to limit interference between antibiotics. It is important for the inhibition diameters to be measurable. The antibiograms were then incubated at 37° C. for 18 hours (h) to 24 h.
(§6) The antibiotic wafers were made of high quality absorbent paper with a diameter of 6 mm and they were impregnated with antibiotics at concentrations in the range 1 micrograms (μg) to 300 μg approximately, depending on the antibiotic.
(§7) In the examples below, reference disks were used as sold by the suppliers i2a (Montpellier, France), BD (Becton Dickinson, USA), Bio-Rad (Hercules, USA), Biomerieux (Marcy l′Etoile, France) containing the following antibiotics and carrying the following codes and the following doses: AMX (amoxicillin) 25 μg: AMC (amoxicillin-clavulanic acid) 20 μg-10 μg; GM for gentamicin, 15 μg; SXT (trimethoprim-sulfamethoxazole) 1.25/23.75 μg; TIC (ticarcillin) 75 μg; TCC (ticarcillin-clavulanic acid) […]; TZP (piperacillin-tazobactam) 75/10 μg; CAZ (ceftazidime) 30 μg; IMP or IPM (imipeneme) 10 μg; COL (colistin) 50 μg; FOX (cefoxitine) 30 μg; VAN (vancomycin) 30 μg; TEC (teicoplanin) 30 μg; CLI or DA (clindamycin) 2 μg; CRO (ceftriaxone) 30 μg; CIP (ciprofloxacin) 5 μg; OFX (ofloxacin) 5 μg; CTX (cefotaxime) 5 μg; AN or AK (amikacin) 30 μg; TM (tobramycin) 10 μg; FOX (cefoxitine) 30 μg; ATM (aztreonam) 30 μg; ERT (ertapenem) 10 μg; FF (fosfomycin) 200 μg; DO (doxycycline) 30 μg; K (kanamycin) 1000 μg; L (lincomycin) 15 μs; LNZ (linezolid) 10 μg; AN (nalidixic acid) 30 μg; NOR (norfloxacin) 10 μg; PT (pristinamycin) 15 μg; RA (rifampicin) 5 μg; and E (erythromycin) 15 μg.

The test system of the next test is Escherichia coli. The conditions noted are these: for resistance (I, R) or sensitivity (S): Table C1, disk loads of Table B; for resistant (I/R) or sensitive (S): Table C2, square dish. The method, then:
as §1, §2, §3, §4, §5, §6, §7

Another test relates to Proteus mirabilis. The conditions noted are these: Table C1, six wafers, disk loads of Table B. The method, then: as §1, §2, §3, §4, §5, §6, §7
The test system of the next test is Klebsiella pneumoniae. Conditions: Table C2, sixteen wafers, square dish. Here is the method:
as §1, §2, §3, §4, §5, §6, §7

The subject of test [1] is Staphylococcus epidermidis. Conditions: Table C1, six wafers, disk loads of Table B. The method, then: as §1, §2, §3, §4, §5, §6, §7
The next test relates to Staphylococcus aureus. Conditions: for resistance (I, R) or sensitivity (S): Table C1, six wafers, disk loads of Table B; for resistant (I/R) or sensitive (S): Table C2, sixteen wafers, square dish. The method, then:
as §1, §2, §3, §4, §5, §6, §7

The mark [2] stands for this setting: E. coli phenotype Cephalosporinase + R to fluoroquinolones + R to cotrimoxazole + partial R to aminosides, sixteen wafers.
[3] abbreviates: E. coli phenotype Hl penicillinase + R to fluoroquinolones + R to cotrimoxazole + partial R to aminosides, sixteen wafers.
Where [4] appears, read: E. coli phenotype Wild, sixteen wafers in a rectangular grid.
Where [5] appears, read: K. pneumoniae phenotype Cephalosporinase + R to aminosides + R to cotrimoxazole.
The mark [6] stands for this setting: S. aureus phenotype R to methicilline, R to aminosides, fluoroquinolones, to rifampicie, to macrolides and the like.
Setting [7] is: S. epidermidis phenotype Methicillin resistant.
The mark [8] stands for this setting: S. aureus phenotype Methicillin resistant.

The record followed here is patent US10837044B2, “Automated method for analyzing and interpreting an antimicrobial susceptibility” (FONDATION MEDITERRANEE INFECTION, priority 2014, dated 2020).

Take `CC1(C)S[C@@H]2[C@H](NC(=O)[C@H](N)c3ccc(O)cc3)C(=O)N2[C@H]1C(=O)O` [AMX, amoxicillin]: the “resistance (I, R) or sensitivity (S)” value is recorded as “R” in the test on Entercoccus faecalis (E. faecalis phenotype Atypical); “S” with Entercoccus faecalis (E. faecalis phenotype Wild); “R” in the test on Escherichia coli (E. coli phenotype BSBL, six wafers); “R” in the test on Escherichia coli (E. coli phenotype Carbapenemase, six wafers); “R” with Escherichia coli (E. coli phenotype Hl cephalosporinase, six wafers); “R” in the test with Escherichia coli (E. coli phenotype Hl penicillinase, six wafers). Also, the “resistance (I, R) or sensitivity (S)” value is reported as “R” in the test on Escherichia coli (E. coli phenotype Inhibitor resistant penicillinase, six wafers); “R” in the test with Escherichia coli (E. coli phenotype Ll penicillinase, six wafers); “S” in the test on Escherichia coli (E. coli phenotype Wild, six wafers in a circle); “R” in the test with Proteus mirabilis (P. mirabilis phenotype Hl cephalosporinase); “R” with Proteus mirabilis (P. mirabilis phenotype Hl penicillinase); “R” with Proteus mirabilis (P. mirabilis phenotype Inhibitor resistant penicillinase). The “resistance (I, R) or sensitivity (S)” value is “R” in the test with Proteus mirabilis (P. mirabilis phenotype Ll penicillinase) and “S” in the test with Proteus mirabilis (P. mirabilis phenotype Wild). The “synergy zone between two antibiotic wafers placed side by side” value in the test with Escherichia coli (E. coli cephalosporinase phenotype (FIGS. 2D, 2E)) is listed as “absence of a zone of synergy”; in the test with Escherichia coli (E. coli strain of BSBL phenotype, champagne-cork shaped inhibition zone), “presence of a zone of synergy”. Moreover, the “resistant (I/R) or sensitive (S)” value with Escherichia coli (setting [2]) is given as “R”; in the test with Escherichia coli (setting [3]) it was “R”; in the test with Escherichia coli (setting [4]), “S”; in the test on Klebsiella pneumoniae (setting [5]) it was “R”; in the test on Klebsiella pneumoniae (K. pneumoniae phenotype Wild), “R”.
Consider `CCC[C@@H]1C[C@@H](C(=O)N[C@@H]([C@H]2O[C@H](SC)[C@H](O)[C@@H](O)[C@H]2O)[C@H](C)Cl)N(C)C1` [CLI, clindamycin], for which the “resistance (I, R) or sensitivity (S)” value (in test [1] (S. epidermidis phenotype Wild); in the test with Staphylococcus aureus (S. aureus phenotype Wild)) was “S” in each case. For the same molecule, the “resistant (I/R) or sensitive (S)” value with Staphylococcus aureus (setting [6]) is “R”; in the test with Staphylococcus aureus (S. aureus phenotype Wild), “S”.
On to `CO[C@@]1(NC(=O)Cc2cccs2)C(=O)N2C(C(=O)O)=C(COC(N)=O)CS[C@@H]21` [FOX, cefoxitine], for which the “resistance (I, R) or sensitivity (S)” value in test [1] (setting [7]) was “R”; in test [1] (S. epidermidis phenotype Wild), “S”; in the test with Staphylococcus aureus (setting [8]) it was “R”; in the test on Staphylococcus aureus (S. aureus phenotype Wild), “S”. Also, the “resistant (I/R) or sensitive (S)” value with Escherichia coli (setting [2]) is recorded as “S”; with Escherichia coli (setting [3]), “S”; in the test on Escherichia coli (setting [4]), “S”; with Staphylococcus aureus (setting [6]), “R”; with Staphylococcus aureus (S. aureus phenotype Wild), “S”; in the test on Klebsiella pneumoniae (setting [5]), “S”. The “resistant (I/R) or sensitive (S)” value in the test on Klebsiella pneumoniae (K. pneumoniae phenotype Wild) is reported as “S”.
Consider `O=C1CN(/N=C/c2ccc([N+](=O)[O-])o2)C(=O)N1` [FUR, nitrofurantoin], for which the “resistance (I, R) or sensitivity (S)” value in the test on Entercoccus faecalis (E. faecalis phenotype Atypical) and in the test with Entercoccus faecalis (E. faecalis phenotype Wild) was “S” throughout. The “resistant (I/R) or sensitive (S)” value is “R” in the test on Staphylococcus aureus (setting [6]) and “S” with Staphylococcus aureus (S. aureus phenotype Wild).
Turning to `CCC[C@@H]1C[C@@H](C(=O)N[C@@H]([C@H]2O[C@H](SC)[C@H](O)[C@@H](O)[C@H]2O)[C@@H](C)O)N(C)C1` [LIN, lincomycin], the “resistance (I, R) or sensitivity (S)” value with Entercoccus faecalis (E. faecalis phenotype Atypical) and in the test with Entercoccus faecalis (E. faecalis phenotype Wild) was “S” throughout.
For `CN[C@H](CC(C)C)C(=O)N[C@H]1C(=O)N[C@@H](CC(N)=O)C(=O)N[C@H]2C(=O)N[C@H]3C(=O)N[C@H](C(=O)N[C@H](C(=O)O)c4cc(O)cc(O)c4-c4cc3ccc4O)[C@H](O)c3ccc(c(Cl)c3)Oc3cc2cc(c3O[C@@H]2O[C@H](CO)[C@@H](O)[C@H](O)[C@H]2O[C@H]2C[C@](C)(N)[C@H](O)[C@H](C)O2)Oc2ccc(cc2Cl)[C@H]1O` [VAN, vancomycin], the “resistance (I, R) or sensitivity (S)” value (in the test with Entercoccus faecalis (E. faecalis phenotype Atypical); with Entercoccus faecalis (E. faecalis phenotype Wild); in test [1] (setting [7]); in test [1] (S. epidermidis phenotype Wild); in the test with Staphylococcus aureus (setting [8]); in the test on Staphylococcus aureus (S. aureus phenotype Wild)) was “S” each time. Besides, the “resistant (I/R) or sensitive (S)” value in the test on Staphylococcus aureus (setting [6]) and with Staphylococcus aureus (S. aureus phenotype Wild) was “S” each time.
On to gentamicin, for which the “resistance (I, R) or sensitivity (S)” value (with Entercoccus faecalis (E. faecalis phenotype Atypical); with Entercoccus faecalis (E. faecalis phenotype Wild); in test [1] (setting [7]); in test [1] (S. epidermidis phenotype Wild); in the test with Staphylococcus aureus (setting [8]); in the test with Staphylococcus aureus (S. aureus phenotype Wild)) was “S” in each case. In addition, the “resistant (I/R) or sensitive (S)” value is “R” in the test with Escherichia coli (setting [2]); “R” with Escherichia coli (setting [3]); “S” in the test on Escherichia coli (setting [4]); “R” in the test on Staphylococcus aureus (setting [6]); “S” with Staphylococcus aureus (S. aureus phenotype Wild); “R” in the test on Klebsiella pneumoniae (setting [5]). The “resistant (I/R) or sensitive (S)” value with Klebsiella pneumoniae (K. pneumoniae phenotype Wild) is recorded as “R”.
With teicoplanin [TEC], the “resistance (I, R) or sensitivity (S)” value (with Entercoccus faecalis (E. faecalis phenotype Atypical); in the test on Entercoccus faecalis (E. faecalis phenotype Wild); in test [1] (setting [7]); in test [1] (S. epidermidis phenotype Wild); in the test on Staphylococcus aureus (setting [8]); in the test on Staphylococcus aureus (S. aureus phenotype Wild)) was “S” throughout. Besides, the “resistant (I/R) or sensitive (S)” value with Staphylococcus aureus (setting [6]) and in the test on Staphylococcus aureus (S. aureus phenotype Wild) was “S” throughout.
Regarding “trimethoprim-sulfamethoxazole (cotrimoxazole) [SXT]”, the “resistance (I, R) or sensitivity (S)” value (in test [1] (setting [7]); in test [1] (S. epidermidis phenotype Wild); in the test with Staphylococcus aureus (setting [8]); in the test with Staphylococcus aureus (S. aureus phenotype Wild)) was “S” in each case. Further, the “resistant (I/R) or sensitive (S)” value in the test with Escherichia coli (setting [2]) was “R”; in the test on Escherichia coli (setting [3]), “R”; in the test on Escherichia coli (setting [4]) it was “S”; with Staphylococcus aureus (setting [6]) it was “R”; in the test on Staphylococcus aureus (S. aureus phenotype Wild), “S”; in the test on Klebsiella pneumoniae (setting [5]), “R”. Further, the “resistant (I/R) or sensitive (S)” value with Klebsiella pneumoniae (K. pneumoniae phenotype Wild) is “R”.
